From a melting point compilation (Tetko et al.) come the findings set out here.

By melting point is commonly meant the temperature, or range, at which the solid turns liquid. The molecule `CC(C)(C)OC(=O)N1CCNc2ccccc2C1` yielded a melting point of 69 to 71 °C.

For the molecule `CCCS(=O)(=O)N1CCC(N)CC1`, the melting point was 49 to 51 °C.

`Cc1nn(-c2ccccc2)c(N)c1C(F)(F)F`: the melting point fell in the range of 77 to 79 °C.

With `O=C(O)c1cc(S(=O)(=O)Cl)ccc1Cl`, the melting point was in the range of 105 to 115 °C.

Molecule `CS(=O)(=O)c1ccc(Cl)c(NC(=O)CCl)c1` gave a melting point of 148 to 149 °C.

The molecule `Cc1nn(C)c(C)c1S(=O)(=O)NC(C)C(=O)O` (stereo not given) registered a melting point of 197 to 199 °C.

In the case of `CC(=O)NCC(O)c1ccccc1` (stereo not given), the melting point lay within 119 to 121 °C.

Regarding `CNC(c1cccnc1)c1ccc(Cl)cc1Cl` (stereo not given), the melting point fell in the range of 111 to 113 °C.

As for `Cc1cccc(C)c1NC(=O)CN1CCNCC1`, the melting point was 53 to 55 °C.

Molecule `N#CC1CNCCN1Cc1ccccc1` (stereo not given) returned a melting point of 98 to 100 °C.

With `CC(C)(C)C(=O)Nc1nc(CC(=O)O)cs1`, the melting point is 222 to 224 °C.

`Cc1[nH]c2ccccc2c1C(=O)C(C)Cl` (stereo not given) yielded a melting point of 133 to 135 °C.

`CC(C)c1n[nH]c(-c2ccccc2N)n1`: the melting point fell in the range of 125 to 127 °C.

In turn, `CC(NC(=O)OC(C)(C)C)C(O)Cc1ccccc1` (stereo not given) returned a melting point of 116 to 118 °C.

Molecule `O=C(Nc1ccccc1Cl)c1c[nH]c2ccccc12` gave a melting point of 213 to 215 °C.

In turn, `CC(C)N1C(=O)NC2(CCNC2)C1=O` (stereo not given) displayed a melting point of 98 to 100 °C.

Molecule `Cc1ccc(NC(=O)NC(=O)CCl)cc1C` gave a melting point of 144 to 146 °C.

In the case of `CCCn1c(C)nnc1CO`, the melting point lay in the range of 59 to 61 °C.

For the molecule `O=C(O)c1ccc(SC(F)F)cc1`, the melting point was in the range of 154 to 156 °C.

Take `CC(C)S(=O)(=O)c1ccc(Cl)c(C(=O)O)c1`: the melting point lay in the range of 129 to 131 °C.

Consider `COC(=O)C1CSCCC1=O` (stereo not given), for which the melting point lay within 67 to 69 °C.

The molecule `CC(C)(C)OC(=O)NC(CO)CO` showed a melting point of 83 to 85 °C.

`NNc1nc2cc(C(F)(F)F)ccc2s1` returned a melting point of 219 to 221 °C.

For `CC(C)c1nonc1N`, the melting point is 43 to 45 °C.

Molecule `CCc1cccc(CC)c1-n1ccnc1` showed a melting point of 74 to 76 °C.

The molecule `CC(Cc1ccc(Cl)cc1Cl)C(=O)O` (stereo not given) showed a melting point of 49 to 51 °C.

Molecule `O=C(O)CCCN1C(=O)CSC1=S` showed a melting point of 124 to 126 °C.

Take `O=C(O)C1CC12CCCc1ccccc12` (stereo not given): the melting point lay within 161 to 163 °C.

`O=c1[nH]c(-c2ccccc2Cl)cs1` registered a melting point of 182 to 184 °C.

Consider `CC1Cc2cc(C(=O)O)ccc2N1S(C)(=O)=O` (stereo not given), for which the melting point was in the range of 194 to 196 °C.

On to `Cc1oc(C(=O)O)cc1Cn1cc(Br)cn1`, for which the melting point fell in the range of 154 to 156 °C.

Molecule `OCC1Cc2cc(Br)ccc2O1` (stereo not given) yielded a melting point of 63 to 65 °C.

In the case of `O=C(O)c1ccc(-c2ccc(Cl)cc2)cc1F`, the melting point was 251 to 253 °C.

Molecule `Nc1cccc(CN2C(=O)CNC2=O)c1` yielded a melting point of 159 to 161 °C.

In turn, `CN(c1ccccc1C(=O)O)S(C)(=O)=O` came in with a melting point of 146 to 148 °C.

In the case of `CCc1nc(C(=O)O)c[nH]1`, the melting point was in the range of 239 to 241 °C.

For the molecule `COC(=O)c1ccnc(Cl)c1`, the melting point lay in the range of 31 to 33 °C.

As to `NC(Cc1ccccc1)CN1CCOCC1` (stereo not given), the melting point lay in the range of 54 to 56 °C.

Turning to `Oc1nnnn1-c1ccc(Cl)cc1`, the melting point lay within 141 to 143 °C.

The molecule `COc1cccc2c1OCC(C(=O)O)=C2` yielded a melting point of 239 to 241 °C.

In turn, `COc1ccc(F)cc1C(F)(F)C(=O)O` yielded a melting point of 125 to 127 °C.

`CNC(C)C(=O)O` (stereo not given) gave a melting point of 268 to 270 °C.

In the case of `CC1CCCC(O)(CN)C1` (stereo not given), the melting point fell in the range of 59 to 61 °C.

As to `COc1ccc(CC#N)cn1`, the melting point lay within 49 to 51 °C.

As for `Fc1ccc(NC2CCOCC2)nc1`, the melting point was in the range of 115 to 117 °C.

In the case of `Nc1nnc(Cc2ccccc2Cl)o1`, the melting point lay within 196 to 198 °C.

`CC(C)Cn1nc(C(=O)O)c2ccccc2c1=O` returned a melting point of 171 to 173 °C.

`COc1ccc(C2=CCNC2)cc1` yielded a melting point of 94 to 96 °C.

With `O=Cc1ccc(-c2ccc(Cl)cc2)s1`, the melting point lay in the range of 83 to 87 °C.

`COc1ccnc(NCC(=O)O)n1` displayed a melting point of 190 to 192 °C.
